Measured values taken from patent US9452985B2, “Tau imaging probe” (GE Healthcare Limited, priority 2010, dated 2016).

Assays:
neurofibrillary tangles = experiment: Staining test on brain section of Alzheimer's disease patients; format: binding, human; settings: 100 μM solution in 50% ethanol, 10 minutes, fluorescence microscope
Excerpt: The procedure of staining test on the compounds of the present invention on the brain section of Alzheimer's disease patients is described below:
(1) We used the brain specimens of the temporal lobe or hippocampus from patients who were definitely diagnosed as having Alzheimer's disease pathology. The specimens were obtained from Choju Medical Institute, Fukushimura Hospital, our collaborating research institute, and the consent for use for research purposes was obtained from the patients' bereaved family (Fukushimura Hospital, Ethics Committee Approval No. 20).
(2) The paraffin-embedded brain tissue was sliced to 6 or 8 μm thickness, extended on a slide glass, and dried. The paraffinized brain section was deparaffinized by washing with xylene for 10 minutes×2, 100% ethanol for 5 minutes×2, 90% ethanol for 5 minutes, and running water for 10 minutes in this order.
(3) As a pretreatment for staining with the compounds of the present invention, the treatment to remove autofluorescence with lipofuscin was performed. First, the paraffinized brain section was immersed in 0.25% KMnO4 solution for 20 minutes. It was washed with PBS for 2 minutes twice, immersed in a 0.1% K2S2O5/oxalic acid solution for approximately 5 minutes, and further washed with PBS for 2 minutes 3 times.
(4) From 100 μM solution of the compounds of the present invention dissolved in 50% ethanol, approximately 150 μl was dropped on the section to react for 10 minutes. After being immersed in tap water 5 times, it was mounted with Flour Save Reagent (Calbiochem) and examined with a fluorescence microscope (Nikon, ECLIPSE 80i). The images were taken with a digital camera (Nikon, Dxin1200F or Photometrics, Cool SNAP ES).

[1] = system: neurofibrillary tangles (tau protein); experiment: Autoradiography experiments using [^18F] THK-5105, [^18F] THK-5117 and [^18F] THK-5125; format: binding, human; settings: hippocampus section and adjacent sections, higher magnification images
Protocol: Paraffin-embedded sections of the brain from an Alzheimer's disease patient were deparaffinized, and then immersed in PBS for 10 minutes. Approximately 400 μCi/ml of each of [^18F] THK-5105, [^18F] THK-5117, and [^18F] THK-5125 was added dropwise to deparaffinized sections and allowed to react for 10 minutes at room temperature. After that, the sections were immersed in distilled water for 2 minutes, shaken lightly in 50% EtOH for 2 minutes, immersed again in distilled water for 2 minutes, and dried in a paraffin stretching device. The section was left overnight in contact with an imaging plate. Next day, the image was read with a BAS 5000 (Fujifilm Corporation). In addition, adjacent sections were immunostained with anti-phosphorylated tau antibody (AT8).

K18-ΔK280 aggregates = K18-ΔK280 aggregates (Homo sapiens (Human), UniProt P10636, DEL597-597); experiment: Saturation binding test of THK-5105; settings: [^18F] THK-5105 0.1 to 100 nM, K18-ΔK280 aggregates 200 nM, room temperature, one hour; read-out: dissociation constant Kd
Protocol: Regarding the binding of tau imaging probes to tau protein aggregates, a binding test was carried out and evaluated using a K18-ΔK280 construct which contained a 4-repeat structure involved in the formation of beta-sheet structures in the htau40 protein. For K18-ΔK280 (Martin von Bergen et al., THE JOURNAL OF BIOLOGICAL CHEMISTRY (2001), vol. 276, pp. 48165-48174; M. Goedert et al., NEURON (1989), vol. 3, pp. 519-526), an artificial gene fragment which was prepared based on its amino acid sequence was cloned into a pET-3a vector, the resulting plasmid was used to transform Escherichia coli BL21 (DE3) competent cells for protein expression, and the recombinant Escherichia coli cell was cultured to express K18-ΔK280. […]
K18-ΔK280 aggregates were made by preparing 20 μM PBS (pH 7.4) and incubating the K18-ΔK280 in the PBS at 37° C. for 4 days. The state where beta-sheet structures in K18-ΔK280 aggregates were formed was ascertained by thioflavin S fluorescence binding test. […]
In the binding test of [^18F] […] THK-5105 to K18-ΔK280 aggregates was calculated from the radioactivity of the filter which was measured on a gamma counter (AccuFLEX γ7000, Aloka). Non-specific binding was determined by adding unlabeled THK-5105 (at a final concentration of 2 μM) to the reaction system and performing experiments in a similar way.

Sequence of K18-ΔK280 aggregates (P10636 other isoform, or with tags, fused parts or gaps del 597-597): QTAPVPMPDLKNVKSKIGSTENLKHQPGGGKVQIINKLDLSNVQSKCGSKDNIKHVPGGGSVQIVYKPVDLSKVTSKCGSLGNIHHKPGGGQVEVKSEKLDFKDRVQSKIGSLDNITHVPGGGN

Kd (K18-ΔK280 aggregates): 3.9 nM
Compound: CN(C)c1ccc(-c2ccc3cc(OCC(O)CF)ccc3n2)cc1 (stereo not drawn) [THK-5105, 6-[(3-fluoro-2-hydroxy)propoxy]-2-(4-dimethylaminophenyl)quinoline]
binding to neurofibrillary tangles in the brain section of Alzheimer's disease patients (staining test) (neurofibrillary tangles): bind to neurofibrillary tangles specifically and selectively
correspondence of autoradiography / unlabeled staining image with anti-phosphorylated tau antibody (AT8) immunostaining [1]: corresponded well with the image of immunostaining with the anti-phosphorylated tau antibody
